# Measured values as given in publication PMC9945177, “Nature-Derived Epoxy Resin Monomers with Reduced Sensitizing Capacity—Isosorbide-Based Bis-Epoxides” (Chemical Research in Toxicology, 2023).
# How the values were obtained:
# [1] = skin permeability, static Franz diffusion cells; assay type: in vitro ADME, pig; conditions: for permeation of epidermis: 6 h experiment, donor 0.1 mg/mL; for recovery at 6 h, 0.1 mg/mL: pig; for recovery at 6 h, 0.1 mg/mL / amount in receptor fluid after 6 h (%) / amount on/in skin (%) / recovery (%): w/w %; for recovery at 6 h, 0.1 mg/mL / recovery (%): sum of receptor compartment after 6 h and overnight skin extraction; for amount on/in skin (%): overnight skin extraction after 6 h
# Experimental: For the permeability experiments, ultra-performance liquid chromatography-electrospray ionization tandem mass spectroscopy (UPLC)-ESI-MS/MS analysis was carried out using a Xevo TQ-S micro triple quadrupole mass spectrometer equipped with an electrospray interface and coupled to an Acquity UPLC H-Class Plus system from Waters. Separation was achieved on an ACE Excel C18-PFP column (75 × 2.1 mm, 1.7 μm) from Advanced Chromatography Technologies Ltd. (Aberdeen, Scotland). Mobile phase A consisted of 0.1% formic acid and 5% acetonitrile in water, whereas mobile phase B consisted of 0.1% formic acid and 5% water in acetonitrile. The gradient program used was as follows: 20% B (0–2 min), 20–80% B (2–9 min), 80–95% B (9–9.1 min), 95% B (9.1–12 min), 95–20% B (12–12.1 min), 20% B (12.1–15 min). The flow rate was set to 0.3 mL/min and the injection volume was 2 μL. Analysis was performed in positive ionization mode using a Multiple Reaction Monitoring (MRM) method. The optimal parameters were capillary voltage 1.5 (kV), desolvation temperature 650 °C, desolvation gas 850 L/h, and cone 100 L/h.
# The Franz diffusion cell experiment was based on the OECD Test Guidelines.[35] Static Franz diffusion cells equipped with pig ex vivo epidermis were used to assess the permeability of isosorbide bis-epoxides 2 and 3. Freshly cut pig ears were received frozen and stored at −20 °C until used for permeability assessment. One day before the experiment, the ears were transferred at +4 °C and allowed to thaw. The ears were then washed, shaved, and carefully cut with a Watson Dermatome skin graft knife to obtain 0.1 mm pieces of the epidermis layer. The integrity of the skin (transparent and intact) was determined by ocular inspection. Thereafter, the epidermis layer was cut and positioned between the donor and receptor compartment of each Franz cell. The receptor compartments were filled with 5 mL of ethanol/PBS (1:1) and equipped with a small magnetic stir bar to ensure mixing while maintaining a constant temperature of the circulating water at 37 °C. To equilibrate the skin, the upper chamber was filled with 0.5 mL of ethanol/PBS (1:1) which was later removed and replaced with the donor solution (50 μL) containing either 2 or 3 (0.1 mg/mL) or DGEBA (0.1 mg/mL) used as a positive control. A procedural blank containing only 50 μL of ethanol/PBS (1:1) in the donor compartment was also included in the experimental setup. Samples of 100 μL were collected after 0–2 min, 1, 2, 3, 4, 5, and 6 h. At each timepoint, a sample aliquot was removed and 100 μL of ethanol/PBS (1:1) was added to the receptor compartment to keep the volume constant. After 6 h, the skin from each Franz cell was extracted overnight in 5 mL of ethanol/PBS (1,1). Triplicate experiments were performed for each compound. The obtained samples were analyzed with UPLC-ESI-MS/MS (see Figure S2 for parameters) and quantification was based on external calibration curves. The limit of quantification (LOQ) was determined by the analysis of the analyte at low concentration and was calculated as 10 times the signal-to-noise ratio.
# AcPHCKRM = assay: peptide depletion with AcPHCKRM; conditions: peptide 1 mM, test compound 10 mM, DMSO/phosphate buffer pH 7.4 (1:1), room temperature
# Experimental: Liquid chromatography-mass spectroscopy (LC-MS) analyses of peptide depletion experiments were performed using electrospray ionization (ESI) on a Hewlett-Packard 1100 HPLC/MS (Agilent Technologies, Waldbronn, Germany). The system included a vacuum degasser, a binary pump, an autoinjector, a column thermostat, a diode array detector, and a single quadrupole mass spectrometer. The high-performance liquid chromatography (HPLC) system was equipped with a HyPURITY C18 column (150 × 3 mm i.d., particle size 3 μm, Thermo Hypersil-Keystone, Thermo Electron Corp., Bellafonte, PA, USA). The mobile phase consisted of 0.005% pentafluoropropanoic acid, 0.1% acetic acid, and 5% acetonitrile in water (solvent A) and 0.005% pentafluoropropanoic acid, 0.1% acetic acid, and 50% water in acetonitrile (solvent B). […] The gradient conditions used were as follows: 0-8% B (0-3 min), 8-10% B (3-15 min), 10-100% B (15-18 min), 100% B (18-30 min), 100-0% B (30-30.1 min), 0% B (30.1-40 min). The ESI interface was used in positive ionization mode with the following spray chamber settings: nebulizer pressure, 35 psi; capillary voltage, 3000 V; drying gas temperature, 350 °C; and drying gas flow rate, 12 L/min. The fragmentor voltage was set to 120 V. The mass spectrometer was used in scan mode detecting molecular ions with m/z values ranging from 50 to 1800. All solvents were degassed with argon prior to use.
# [2] = Extract: skin extracted overnight after 6 h
smiles,measurement,setting,value
"O=C(OC1COC2C(OC(=O)c3ccc(CC4CO4)cc3)COC12)c1ccc(CC2CO2)cc1 [Compound 2, (3R,3aR,6S,6aR)-3,6-O-Bis[4-(3,4-epoxypropyl)benzoyl]-1,4:3,6-dianhydro-D-glucitol]",permeation of epidermis,[1],observed
same,Average (µM),[1]; [2],0.345 µM
same,Average (µg/ml),[1]; [2],0.161 µg/mL
same,Replicate 1,[1]; [2],0.203 µg/mL
same,Replicate 2,[1]; [2],0.139 µg/mL
same,Replicate 3,[1]; [2],0.141 µg/mL
same,"recovery at 6 h, 0.1 mg/mL",[1],48%
same,Average (µM),"[1]; receptor fluid, timepoint 0 h",0 µM
same,Average (µg/ml),"[1]; receptor fluid, timepoint 0 h",0 µg/mL
same,Replicate 1 (µg/ml),"[1]; receptor fluid, timepoint 0 h",< LOQ
same,Replicate 2 (µg/ml),"[1]; receptor fluid, timepoint 0 h",< LOQ
same,Replicate 3 (µg/ml),"[1]; receptor fluid, timepoint 0 h",< LOQ
same,Average (µM),"[1]; receptor fluid, timepoint 1 h",0.123 µM
same,Average (µg/ml),"[1]; receptor fluid, timepoint 1 h",0.0574 µg/mL
same,Replicate 1,"[1]; receptor fluid, timepoint 1 h",0.0637 µg/mL
same,Replicate 2,"[1]; receptor fluid, timepoint 1 h",0.0511 µg/mL
same,Average (µM),"[1]; receptor fluid, timepoint 2 h",0.490 µM
same,Average (µg/ml),"[1]; receptor fluid, timepoint 2 h",0.228 µg/mL
same,Replicate 1,"[1]; receptor fluid, timepoint 2 h",0.299 µg/mL
same,Replicate 2,"[1]; receptor fluid, timepoint 2 h",0.233 µg/mL
same,Replicate 3,"[1]; receptor fluid, timepoint 2 h",0.154 µg/mL
same,Average (µM),"[1]; receptor fluid, timepoint 3 h",0.669 µM
same,Average (µg/ml),"[1]; receptor fluid, timepoint 3 h",0.312 µg/mL
same,Replicate 1,"[1]; receptor fluid, timepoint 3 h",0.437 µg/mL
same,Replicate 2,"[1]; receptor fluid, timepoint 3 h",0.320 µg/mL
same,Replicate 3,"[1]; receptor fluid, timepoint 3 h",0.180 µg/mL
same,Average (µM),"[1]; receptor fluid, timepoint 4 h",0.796 µM
same,Average (µg/ml),"[1]; receptor fluid, timepoint 4 h",0.371 µg/mL
same,Replicate 1,"[1]; receptor fluid, timepoint 4 h",0.538 µg/mL
same,Replicate 2,"[1]; receptor fluid, timepoint 4 h",0.362 µg/mL
same,Replicate 3,"[1]; receptor fluid, timepoint 4 h",0.213 µg/mL
same,Average (µM),"[1]; receptor fluid, timepoint 5 h",0.721 µM
same,Average (µg/ml),"[1]; receptor fluid, timepoint 5 h",0.336 µg/mL
same,Replicate 1,"[1]; receptor fluid, timepoint 5 h",0.500 µg/mL
same,Replicate 2,"[1]; receptor fluid, timepoint 5 h",0.323 µg/mL
same,Replicate 3,"[1]; receptor fluid, timepoint 5 h",0.186 µg/mL
same,Average (µM),"[1]; receptor fluid, timepoint 6 h",0.679 µM
same,Average (µg/ml),"[1]; receptor fluid, timepoint 6 h",0.317 µg/mL
same,Replicate 1,"[1]; receptor fluid, timepoint 6 h",0.474 µg/mL
same,Replicate 2,"[1]; receptor fluid, timepoint 6 h",0.309 µg/mL
same,Replicate 3,"[1]; receptor fluid, timepoint 6 h",0.166 µg/mL
same,amount in receptor fluid after 6 h (%),[1],31.7 ± 12.6%
same,amount on/in skin (%),[1],16.1 ± 3.0%
same,recovery (%),[1],47.7 ± 15.6%
same,reactivity with the model peptide AcPHCKRM,AcPHCKRM,least reactive
"c1cc(CC2CO2)ccc1CO[C@H]1CO[C@H]2[C@@H]1OC[C@H]2OCc1ccc(CC2CO2)cc1 (stereo partly drawn) [Compound 3, (3R,3aR,6S,6aR)-3,6-O-Bis[4-(3,4-epoxypropyl)benzyl]-1,4:3,6-dianhydro-D-glucitol]",permeation of epidermis,[1],observed
same,Average (µM),[1]; [2],0.0736 µM
same,Average (µg/ml),[1]; [2],0.0323 µg/mL
same,Replicate 1,[1]; [2],0.0650 µg/mL
same,Replicate 2,[1]; [2],0.000965 µg/mL
same,Replicate 3,[1]; [2],0.0309 µg/mL
same,"recovery at 6 h, 0.1 mg/mL",[1],25%
same,Average (µM),"[1]; receptor fluid, timepoint 0 h",0 µM
same,Average (µg/ml),"[1]; receptor fluid, timepoint 0 h",0 µg/mL
same,Replicate 1 (µg/ml),"[1]; receptor fluid, timepoint 0 h",< LOQ
same,Replicate 2 (µg/ml),"[1]; receptor fluid, timepoint 0 h",< LOQ
same,Replicate 3 (µg/ml),"[1]; receptor fluid, timepoint 0 h",< LOQ
same,Average (µM),"[1]; receptor fluid, timepoint 1 h",0.187 µM
same,Average (µg/ml),"[1]; receptor fluid, timepoint 1 h",0.0818 µg/mL
same,Replicate 1,"[1]; receptor fluid, timepoint 1 h",0.0897 µg/mL
same,Replicate 2,"[1]; receptor fluid, timepoint 1 h",0.110 µg/mL
same,Replicate 3,"[1]; receptor fluid, timepoint 1 h",0.0460 µg/mL
same,Average (µM),"[1]; receptor fluid, timepoint 2 h",0.465 µM
same,Average (µg/ml),"[1]; receptor fluid, timepoint 2 h",0.204 µg/mL
same,Replicate 1,"[1]; receptor fluid, timepoint 2 h",0.139 µg/mL
same,Replicate 2,"[1]; receptor fluid, timepoint 2 h",0.292 µg/mL
same,Replicate 3,"[1]; receptor fluid, timepoint 2 h",0.180 µg/mL
same,Average (µM),"[1]; receptor fluid, timepoint 3 h",0.563 µM
same,Average (µg/ml),"[1]; receptor fluid, timepoint 3 h",0.247 µg/mL
same,Replicate 1,"[1]; receptor fluid, timepoint 3 h",0.191 µg/mL
same,Replicate 2,"[1]; receptor fluid, timepoint 3 h",0.347 µg/mL
same,Replicate 3,"[1]; receptor fluid, timepoint 3 h",0.203 µg/mL
same,Average (µM),"[1]; receptor fluid, timepoint 4 h",0.542 µM
same,Average (µg/ml),"[1]; receptor fluid, timepoint 4 h",0.238 µg/mL
same,Replicate 1,"[1]; receptor fluid, timepoint 4 h",0.202 µg/mL
same,Replicate 2,"[1]; receptor fluid, timepoint 4 h",0.309 µg/mL
same,Replicate 3,"[1]; receptor fluid, timepoint 4 h",0.203 µg/mL
same,Average (µM),"[1]; receptor fluid, timepoint 5 h",0.539 µM
same,Average (µg/ml),"[1]; receptor fluid, timepoint 5 h",0.236 µg/mL
same,Replicate 1,"[1]; receptor fluid, timepoint 5 h",0.204 µg/mL
same,Replicate 2,"[1]; receptor fluid, timepoint 5 h",0.306 µg/mL
same,Replicate 3,"[1]; receptor fluid, timepoint 5 h",0.198 µg/mL
same,Average (µM),"[1]; receptor fluid, timepoint 6 h",0.495 µM
same,Average (µg/ml),"[1]; receptor fluid, timepoint 6 h",0.217 µg/mL
same,Replicate 1,"[1]; receptor fluid, timepoint 6 h",0.165 µg/mL
same,Replicate 2,"[1]; receptor fluid, timepoint 6 h",0.298 µg/mL
same,Replicate 3,"[1]; receptor fluid, timepoint 6 h",0.189 µg/mL
same,amount in receptor fluid after 6 h (%),[1],21.7 ± 5.8%
same,amount on/in skin (%),[1],3.2 ± 2.6%
same,recovery (%),[1],24.9 ± 8.4%
same,reactivity with the model peptide AcPHCKRM,AcPHCKRM,slightly less reactive
